Measurements as given in patent publication US6346543B1, “Use of a taxoid to treat abnormal cell proliferation in the brain” (priority 1998, dated 2002).
Where “and” joins values, the source holds several entries; their conditions need not be identical. Equal values may be shown once.

Assay: Single i.v. bolus pharmacokinetic study in mice: plasma and brain levels by LC-MS/MS
Type: in vivo, female C3H/HeN mice
Conditions: mouse; for Plasma product (Ic) concentration: individual animals IV1-IV4
Experimental: Analytical Results Obtained from a Single i.v. Bolus Pharmacokinetic Study in Mice.
Groups of female C3H/HeN mice received the product by an intravenous route as a bolus at a dose level of 40 mg.kg^−1, equivalent to 120 mg.m^−2. Blood and brain samples were obtained from all dosed animals sacrificed at intervals up to 72 hours post dose. Brain and corresponding plasma samples were assayed for product (Ia) content by an LC-MS/MS assay.
2.25 mg.ml^−1 solution containing 5% Polysorbate 80, 5% ethanol, and 90% of an aqueous 5% glucose solution.
Fifty-six female C3H/HeN mice, each weighing ca 20 g, were each administered formulated product II by i.v. bolus via the tail vein at an injection volume of 0.4 ml to give a total dose of 40 mg.kg^−1.
Blood by cardiac puncture, and liver and brain by dissection after CO2 sacrifice.
Whole blood was collected in heparinised tubes, and corresponding plasma samples were obtained by centrifugation, and frozen immediately at −20° C. Tissues were blotted, weighed, and frozen immediately at −20° C. All samples were dispatched frozen for analysis. Upon receipt, samples were stored frozen at approximately −18° C. pending analysis.
LC-MS/MS (Sciex API III plus) in turbo-ionspray mode.
75×4.6 mm Supelcosil ABZ plus (3 μm).
Acetonitrile/methanol/ammonium acetate (10 mM); 40/25/35 v/v/v.
Plasma: Added 100 μl of acetonitrile to sample (50 μl). Vortexed, centrifuged, removed supernatant, added 100 μl of mobile phase and injected 150 μl .
Brain: Added 100 μl of acetonitrile to homogenised sample (100 mg of a 1:1 w/w brain with water homogenate) and vortexed. Added 1 ml of diethyl ether, vortexed, centrifuged, removed organic layer, and dried under N2. Reconstituted in 200 μl of mobile phase and injected 150 μl.
Plasma: Nine at concentrations of 5, 10, 20, 50, 100, 200, 300, 400 & 500 ng.ml^−1 (product Ia). Prepared by adding suitable aliquots of the product (concentrations =0.1, 1 or 10 μg.ml^−1) in ethanol to 0.5 ml aliquots of mouse plasma. Each sample was vortexed following drug addition; a 50 μl aliquot was then removed for assay.
Brain: Eleven at concentrations of 10, 20, 30, 100, 200, 300, 400, 500, 1000, 2500 & 5000 ng.g^−1 in homogenised mouse brain (1:1 w/w brain with water). Prepared by adding suitable aliquots of the product (concentrations=1, 10 or 100 μg.ml-^−1) in ethanol to 0.5, 1, 3 or 4 g of homogenised mouse brain. Each sample was vortexed following drug addition and a 100 mg aliquot was then removed for assay.
A biexponential equation was fitted to the profiles using an interactive linear least-square algorithm as part of the SIPHAR package.

[1] = plasma, i.v. 40 mg.kg^−1, calculated from values ≧b.l.q. of 20 ng.ml^−1
[2] = plasma, i.v. 40 mg.kg^−1, calculated from values ≧l.o.d. of 4 ng.ml^−1

CO[C@H]1C(=O)[C@]2(C)[C@@H](OC)C[C@H]3OC[C@@]3(OC(C)=O)[C@H]2[C@H](OC(=O)c2ccccc2)[C@]2(O)C[C@H](OC(=O)[C@H](O)[C@@H](NC(=O)OC(C)(C)C)c3ccccc3)C(C)=C1C2(C)C [Product (Ia), 4α-acetoxy-2α-benzoyloxy-5β, 20-epoxy-1β-hydroxy-7β, 10β-dimethoxy-9-oxo-11-taxen-13α-yl (2R,3S)-3 tert-butoxycarbonylamino-2-hydroxy-3-phenylpropionate]
AUC0-72h (brain, i.v. 40 mg.kg^−1): *the corresponding AUC0-72h = 549.7 h.μg.g^−1
Terminal T½ (brain, i.v. 40 mg.kg^−1): 31.4 h
AUC0-∞ (brain, i.v. 40 mg.kg^−1, mean data, extrapolated from 72 h, listed as product (Ic)): 787.g* h.μg.g^−1
Mean total plasma clearance (i.v. 40 mg.kg^−1): 1.3 I.h^−1.kg^−1
levels in the brain relative to those in the plasma (on the basis of AUC0∞ values) (i.v. 40 mg.kg^−1): about twenty
time post dose up to which plasma levels persisted above the limit of accurate quantification (20 ng.ml^−1) (i.v. 40 mg.kg^−1): up to 14 h
time post dose up to which plasma levels were consistently above the limit of detection (4 ng.ml^−1) (i.v. 40 mg.kg^−1): up to 24 h
Plasma product (Ic) concentration (i.v. 40 mg.kg^−1, 2 min after dose): 52987 ng/mL and 45942 ng/mL and 49607 ng/mL and 38994 ng/mL
Plasma product (Ic) concentration, MEAN (i.v. 40 mg.kg^−1, 2 min after dose, mean of IV1-IV4): 46882 ng/mL
Plasma product (Ic) concentration (i.v. 40 mg.kg^−1, 5 min after dose): 36734 ng/mL and 33538 ng/mL and 32077 ng/mL and 34903 ng/mL
Plasma product (Ic) concentration, MEAN (i.v. 40 mg.kg^−1, 5 min after dose, mean of IV1-IV4): 34313 ng/mL
Plasma product (Ic) concentration (i.v. 40 mg.kg^−1, 15 min after dose): 20493 ng/mL and 20897 ng/mL and 21051 ng/mL and 19459 ng/mL
Plasma product (Ic) concentration, MEAN (i.v. 40 mg.kg^−1, 15 min after dose, mean of IV1-IV4): 20475 ng/mL
Plasma product (Ic) concentration (i.v. 40 mg.kg^−1, 0.5 h after dose): 10765 ng/mL and 10344 ng/mL and 9170 ng/mL and 11232 ng/mL
Plasma product (Ic) concentration, MEAN (i.v. 40 mg.kg^−1, 0.5 h after dose, mean of IV1-IV4): 10378 ng/mL
Plasma product (Ic) concentration (i.v. 40 mg.kg^−1, 0.75 h after dose): 7133 ng/mL and 10948 ng/mL and 8121 ng/mL and 10148 ng/mL
Plasma product (Ic) concentration, MEAN (i.v. 40 mg.kg^−1, 0.75 h after dose, mean of IV1-IV4): 9087 ng/mL
Plasma product (Ic) concentration (i.v. 40 mg.kg^−1, 1 h after dose): 6017 ng/mL and 7423 ng/mL and 6693 ng/mL and 6079 ng/mL
Plasma product (Ic) concentration, MEAN (i.v. 40 mg.kg^−1, 1 h after dose, mean of IV1-IV4): 6553 ng/mL
Plasma product (Ic) concentration (i.v. 40 mg.kg^−1, 4 h after dose): 1072 ng/mL and 1110 ng/mL and 835 ng/mL and 830 ng/mL
Plasma product (Ic) concentration, MEAN (i.v. 40 mg.kg^−1, 4 h after dose, mean of IV1-IV4): 962 ng/mL
Plasma product (Ic) concentration (i.v. 40 mg.kg^−1, 6 h after dose): 449 ng/mL and 316 ng/mL and 346 ng/mL and 336 ng/mL
Plasma product (Ic) concentration, MEAN (i.v. 40 mg.kg^−1, 6 h after dose, mean of IV1-IV4): 362 ng/mL
Plasma product (Ic) concentration (i.v. 40 mg.kg^−1, 8 h after dose): 204 ng/mL and 199 ng/mL and 195 ng/mL and 154 ng/mL
Plasma product (Ic) concentration, MEAN (i.v. 40 mg.kg^−1, 8 h after dose, mean of IV1-IV4): 188 ng/mL
Plasma product (Ic) concentration (i.v. 40 mg.kg^−1, 14 h after dose): 65 ng/mL and 56 ng/mL and 50 ng/mL and 52 ng/mL
Plasma product (Ic) concentration, MEAN (i.v. 40 mg.kg^−1, 14 h after dose, mean of IV1-IV4): 56 ng/mL
Plasma product (Ic) concentration (i.v. 40 mg.kg^−1, 24 h after dose, blq = below limit of accurate quantification (20 ng.ml^−1)): ~18(blq) ng.ml^−1 and ~15(blq) ng.ml^−1 (2×) and ~16(blq) ng.ml^−1
Plasma product (Ic) concentration, MEAN (i.v. 40 mg.kg^−1, 24 h after dose, mean of IV1-IV4 (all blq)): 16 ng/mL
Plasma product (Ic) concentration (i.v. 40 mg.kg^−1, 48 h after dose, n.d. = not detected (≦l.o.d. of 4 ng.ml^−1)): ~4(blq) ng.ml^−1
Plasma product (Ic) concentration, MEAN (i.v. 40 mg.kg^−1, 48 h after dose, mean of IV1-IV4 (blq / n.d.)): 2 ng/mL
brain level, peak (i.v. 40 mg.kg^−1, at 14 h): 9.1 µg/g
brain level (i.v. 40 mg.kg^−1, last sampling time, 72 h): 5.3 µg/g
plasma level, peak (mean) (i.v. 40 mg.kg^−1, peak at 2 minutes): 46900 ng/mL
Plasma product (Ic) concentration (i.v. 40 mg.kg^−1, time after dose printed as — (between 1 h and 4 h)): 4633 ng/mL and 4337 ng/mL and 4600 ng/mL and 3564 ng/mL
Plasma product (Ic) concentration, MEAN (i.v. 40 mg.kg^−1, time after dose printed as — (between 1 h and 4 h), mean of IV1-IV4): 4283 ng/mL
plasma level (i.v. 40 mg.kg^−1, within 4 h): less than 1 μg.ml^−1
penetration of the blood brain barrier (post-i.v. administration): appeared to readily penetrate the blood brain barrier
ClT (total plasma clearance) [1]: 1.3 1.h^−1.kg^−1
Initial T½ [1]: 0.2 h
Terminal T½ [1]: 2.0 h
Vdss [1]: 2.4 1.kg^−1
ClT (total plasma clearance) [2]: 1.3 1.h^−1.kg^−1
Initial T½ [2]: 0.7 h
Terminal T½ [2]: 6.2 h
Vdss [2]: 1.9 1.kg^−1
